From patent USRE39125E1, “Swallowing-assistive drink” (Ryukakusan Co. LTD, priority 2000, dated 2006)

Experiment: Fluoroscopic video-radiography of taking a barium-filled No. 2 capsule, mouth to stomach
Assay type: in vivo
Conditions: patient with difficulty in swallowing; barium-filled No. 2 capsule with about 20 ml of drink
Description: First, the purpose of this test was explained to a patient (the person) who had difficulty in swallowing when taking medicines with water, and their consent was acquired.
Next, barium powder was filled up in a No. 2 capsule and the capsule was used as a placebo. The placebo was taken by the patient with about 20 ml of the swallowing-assistive drink of the present invention, while fluoroscopic video-radiographs of the conditions of taking this medicine were taken by scanning from the mouth to the stomach of the patient. The image information obtained was put into a personal computer and the time-course changes were analyzed as still image data of two sheets a second.

With O [water] the “time to move from the mouth to the stomach” value was “about 18 sec”.
